Tests used:
Assay in all cases: relative viability (nuclei count vs DMSO), 5 days (fraction); higher = more cells survive
[1] = compound: C1=CC=C(C(=C1)C2=CC=C(C=C2)C3=CSC4=C3C(=C(C(=O)N4)C#N)O)O + CC(=O)Nc1cccc(-n2c(=O)n(C3CC3)c(=O)c3c(Nc4ccc(I)cc4F)n(C)c(=O)c(C)c32)c1 [Trametinib] (partner 0.02 µM)
Summary of the method: (§1)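 Lung cancer cell lines were pin-tool dosed in 1536-well plates on the day after seeding, with either a lone drug or a fixed anchor-drug dose plus five library-drug doses (not always all listed) in √10 steps. Nuclei were counted on 4× images after 5 days. Relative viability is the ratio of treated-well to vehicle-well nuclei counts, with each value a median of duplicate plates.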

[2] = compound: C1=CC=C(C(=C1)C2=CC=C(C=C2)C3=CSC4=C3C(=C(C(=O)N4)C#N)O)O + COc1cc2c(Oc3ccc(NC(=O)C4(C(=O)Nc5ccc(F)cc5)CC4)cc3F)ccnc2cc1OCCCN1CCOCC1 [Foretinib] (partner 0.25 µM)
Summary of the method: as §1

[3] = compound: C1=CC=C(C(=C1)C2=CC=C(C=C2)C3=CSC4=C3C(=C(C(=O)N4)C#N)O)O + COc1cccc2cc(-c3nc([C@H]4CC[C@H](C(=O)O)CC4)n4ncnc(N)c34)[nH]c12 [OSI-027] (partner 0.5 µM)
Summary of the method: as §1

[4] = compound: O=C(CCCCCCNC(=O)c1cnc(N(c2ccccc2)c2ccccc2)nc1)NO [Ricolinostat] + C[C@]1(O)C[C@@H](c2nc(-c3ccc4ccc(-c5ccccc5)nc4c3)c3c(N)nccn32)C1 [Linsitinib] (partner 1 µM)
Summary of the method: as §1

| Cell Line | relative viability ([1]; first compound 0.08 µM) | relative viability ([1]; first compound 0.253 µM) | relative viability ([1]; first compound 0.8 µM) | relative viability ([1]; first compound 2.53 µM) | relative viability ([1]; first compound 8 µM) | relative viability ([2]; first compound 0.08 µM) | relative viability ([2]; first compound 0.253 µM) | relative viability ([2]; first compound 0.8 µM) | relative viability ([2]; first compound 2.53 µM) | relative viability ([2]; first compound 8 µM) | relative viability ([3]; first compound 0.08 µM) | relative viability ([3]; first compound 0.253 µM) | relative viability ([3]; first compound 0.8 µM) | relative viability ([3]; first compound 2.53 µM) | relative viability ([3]; first compound 8 µM) | relative viability ([4]; first compound 0.08 µM) | relative viability ([4]; first compound 0.253 µM) | relative viability ([4]; first compound 0.8 µM) | relative viability ([4]; first compound 2.53 µM) |
| --- | --- | --- | --- | --- | --- | --- | --- | --- | --- | --- | --- | --- | --- | --- | --- | --- | --- | --- | --- |
| SW 1573 | 0.608 | 0.522 | 0.654 | 0.659 | 0.434 | 0.836 | 0.864 | 0.884 | 0.916 | 0.837 | 0.618 | 0.821 | 0.657 | 0.54 | 0.391 | 0.673 | 0.781 | 0.781 | 0.853 |
| NCI-H661 | 0.5 | 0.573 | 0.603 | 0.569 | 0.501 | 1.3 | 1.06 | 0.898 | 1.02 | 0.99 | 0.648 | 0.739 | 0.524 | 0.649 | 0.664 |  | 0.53 | 0.792 | 0.779 |
| PC-3 [JPC-3] | 0.756 | 0.789 | 0.683 | 0.701 | 0.692 | 1.05 | 1.01 | 1.02 | 1.05 | 0.995 | 0.637 | 0.777 | 0.704 | 0.93 | 0.719 | 0.894 | 0.925 | 0.9 | 0.793 |
| 201T | 0.734 | 0.744 | 0.737 | 0.734 | 0.832 |  | 1.12 | 1.23 | 0.988 | 0.954 | 0.709 | 0.665 | 0.795 | 0.699 | 0.531 | 0.915 | 0.964 | 0.986 | 0.904 |
| LK-2 | 0.594 | 0.609 | 0.95 | 0.745 | 0.598 |  | 1.01 | 1.37 | 1.3 | 1.7 |  | 0.161 | 0.178 | 0.218 | 0.203 | 0.629 | 0.645 | 0.613 | 0.524 |
| NCI-H727 | 0.39 | 0.373 | 0.384 | 0.423 | 0.331 | 1.26 | 0.97 | 1.27 | 0.789 | 0.843 | 0.474 | 0.671 | 0.668 | 0.519 | 0.52 | 0.212 | 0.269 | 0.333 | 0.354 |

Source: the supplement of paper PMC10307832
